Assay results taken from PubChem BioAssay AID2060891 (Molecular Pharmacology Branch, DTP, NCI, 2025).

System: K98450-129-R-PDC complex spheroid growth, percent test/control
Experiment: Anticancer human tumor K98450-129-R-PDC patient-derived colon adenocarcinoma cell line growth inhibition [RAS]
Settings: for IC50: curve of first compound; for viability, T/C: stronger effect = lower value
Outline: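 Multi-cell-type spheroids: tumor cells plus HUVEC endothelial cells and mesenchymal stem cells. RAS-pathway inhibitors were combined with targeted agents, each dosed in half-log steps down from clinical Cmax, or from 10 microM when Cmax was unknown.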

[1] = second compound 0.000949 µM, first compound 0.0316 µM
[2] = second compound 0.000949 µM, first compound 0.1 µM
[3] = second compound 0.000949 µM, first compound 0.316 µM
[4] = second compound 0.000949 µM, first compound 1 µM
[5] = second compound 0.000949 µM, first compound 3.16 µM
[6] = second compound 0.000949 µM, first compound 10 µM
[7] = second compound 0.003 µM, first compound 0.0316 µM
[8] = second compound 0.003 µM, first compound 0.1 µM
[9] = second compound 0.003 µM, first compound 0.316 µM
[10] = second compound 0.003 µM, first compound 1 µM
[11] = second compound 0.003 µM, first compound 3.16 µM
[12] = second compound 0.003 µM, first compound 10 µM
[13] = second compound 0.00949 µM, first compound 0.0316 µM
[14] = second compound 0.00949 µM, first compound 0.1 µM
[15] = second compound 0.00949 µM, first compound 0.316 µM
[16] = second compound 0.00949 µM, first compound 1 µM
[17] = second compound 0.00949 µM, first compound 3.16 µM
[18] = second compound 0.00949 µM, first compound 10 µM
[19] = second compound 0.03 µM, first compound 0.0316 µM
[20] = second compound 0.03 µM, first compound 0.1 µM
[21] = second compound 0.03 µM, first compound 0.316 µM
[22] = second compound 0.03 µM, first compound 1 µM
[23] = second compound 0.03 µM, first compound 3.16 µM
[24] = second compound 0.03 µM, first compound 10 µM
[25] = second compound 0.0949 µM, first compound 0.0316 µM
[26] = second compound 0.0949 µM, first compound 0.1 µM
[27] = second compound 0.0949 µM, first compound 0.316 µM
[28] = second compound 0.0949 µM, first compound 1 µM
[29] = second compound 0.0949 µM, first compound 3.16 µM
[30] = second compound 0.0949 µM, first compound 10 µM
[31] = second compound 0.3 µM, first compound 0.0316 µM
[32] = second compound 0.3 µM, first compound 0.1 µM
[33] = second compound 0.3 µM, first compound 0.316 µM
[34] = second compound 0.3 µM, first compound 1 µM
[35] = second compound 0.3 µM, first compound 3.16 µM
[36] = second compound 0.3 µM, first compound 10 µM
[37] = second compound 0.000949 µM, first compound 0.00316 µM
[38] = second compound 0.000949 µM, first compound 0.01 µM
[39] = second compound 0.003 µM, first compound 0.00316 µM
[40] = second compound 0.003 µM, first compound 0.01 µM
[41] = second compound 0.00949 µM, first compound 0.00316 µM
[42] = second compound 0.00949 µM, first compound 0.01 µM
[43] = second compound 0.03 µM, first compound 0.00316 µM
[44] = second compound 0.03 µM, first compound 0.01 µM
[45] = second compound 0.0949 µM, first compound 0.00316 µM
[46] = second compound 0.0949 µM, first compound 0.01 µM
[47] = second compound 0.3 µM, first compound 0.00316 µM
[48] = second compound 0.3 µM, first compound 0.01 µM
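Further: spheroids exposed to agents for seven days before the viability readout.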
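Wherever viability, T/C is given: luminescence used as a proxy for viable cell amount.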

## CC(C)NCC(C(=O)N1CCN(c2ncnc3c2C(C)CC3O)CC1)c1ccc(Cl)cc1 (stereo not drawn) + CCn1c(-c2cccnc2C(C)OC)c2c3cc(ccc31)N1CCOC(CC(NC(=O)C(C(C)C)N(C)C(=O)C3(F)CCN(C(=O)C#CC(C)(C)N(C)C)CC3)C(=O)N3CCCC(N3)C(=O)OCC(C)(C)C2)C1
Second compound 0.000949 µM
  IC50: > 10000 nM
Second compound 0.003 µM
  IC50: > 10000 nM
Second compound 0.00949 µM
  IC50: < 31.6 nM
Second compound 0.03 µM
  IC50: < 31.6 nM
Second compound 0.0949 µM
  IC50: < 31.6 nM
Second compound 0.3 µM
  IC50: < 31.6 nM
[1]
  viability, T/C: 64.3%
[2]
  viability, T/C: 61.4%
[3]
  viability, T/C: 83.3%
[4]
  viability, T/C: 73.7%
[5]
  viability, T/C: 73%
[6]
  viability, T/C: 70.4%
[7]
  viability, T/C: 68.8%
[8]
  viability, T/C: 46.6%
[9]
  viability, T/C: 61%
[10]
  viability, T/C: 51.2%
[11]
  viability, T/C: 64.1%
[12]
  viability, T/C: 47%
[13]
  viability, T/C: 45.4%
[14]
  viability, T/C: 37.7%
[15]
  viability, T/C: 42.9%
[16]
  viability, T/C: 34.6%
[17]
  viability, T/C: 50.8%
[18]
  viability, T/C: 39.6%
[19]
  viability, T/C: 33%
[20]
  viability, T/C: 39%
[21]
  viability, T/C: 36.8%
[22]
  viability, T/C: 34%
[23]
  viability, T/C: 38.1%
[24]
  viability, T/C: 35%
[25]
  viability, T/C: 32.4%
[26]
  viability, T/C: 42.1%
[27]
  viability, T/C: 34.7%
[28]
  viability, T/C: 36.4%
[29]
  viability, T/C: 36%
[30]
  viability, T/C: 34.5%
[31]
  viability, T/C: 31.6%
[32]
  viability, T/C: 38.5%
[33]
  viability, T/C: 34.4%
[34]
  viability, T/C: 32.6%
[35]
  viability, T/C: 33.7%
[36]
  viability, T/C: 32.2%

## CC(C)n1nc(-c2ccc3oc(N)nc3c2)c2c(N)ncnc21 + CCn1c(-c2cccnc2C(C)OC)c2c3cc(ccc31)N1CCOC(CC(NC(=O)C(C(C)C)N(C)C(=O)C3(F)CCN(C(=O)C#CC(C)(C)N(C)C)CC3)C(=O)N3CCCC(N3)C(=O)OCC(C)(C)C2)C1
Second compound 0.000949 µM
  IC50: 46.3 nM
Second compound 0.003 µM
  IC50: 2.56 nM
Second compound 0.00949 µM
  IC50: 0.449 nM
Second compound 0.03 µM
  IC50: < 0.316 nM
Second compound 0.0949 µM
  IC50: < 0.316 nM
Second compound 0.3 µM
  IC50: < 0.316 nM
Second compound 0.000949 µM, first compound 0.000316 µM
  viability, T/C: 58%
Second compound 0.000949 µM, first compound 0.001 µM
  viability, T/C: 66.9%
[37]
  viability, T/C: 65.7%
[38]
  viability, T/C: 63.2%
[1]
  viability, T/C: 50.5%
[2]
  viability, T/C: 41.8%
Second compound 0.003 µM, first compound 0.000316 µM
  viability, T/C: 58.5%
Second compound 0.003 µM, first compound 0.001 µM
  viability, T/C: 53.4%
[39]
  viability, T/C: 53%
[40]
  viability, T/C: 38.5%
[7]
  viability, T/C: 40.6%
[8]
  viability, T/C: 31.9%
Second compound 0.00949 µM, first compound 0.000316 µM
  viability, T/C: 52.1%
Second compound 0.00949 µM, first compound 0.001 µM
  viability, T/C: 46%
[41]
  viability, T/C: 34.8%
[42]
  viability, T/C: 33.3%
[13]
  viability, T/C: 30.5%
[14]
  viability, T/C: 28.9%
Second compound 0.03 µM, first compound 0.000316 µM
  viability, T/C: 35.2%
Second compound 0.03 µM, first compound 0.001 µM
  viability, T/C: 40%
[43]
  viability, T/C: 36.5%
[44]
  viability, T/C: 23.9%
[19]
  viability, T/C: 29.1%
[20]
  viability, T/C: 25.6%
Second compound 0.0949 µM, first compound 0.000316 µM
  viability, T/C: 34.3%
Second compound 0.0949 µM, first compound 0.001 µM
  viability, T/C: 32%
[45]
  viability, T/C: 32.6%
[46]
  viability, T/C: 28.6%
[25]
  viability, T/C: 30.6%
[26]
  viability, T/C: 22.7%
Second compound 0.3 µM, first compound 0.000316 µM
  viability, T/C: 29.4%
Second compound 0.3 µM, first compound 0.001 µM
  viability, T/C: 35%
[47]
  viability, T/C: 30.1%
[48]
  viability, T/C: 27.5%
[31]
  viability, T/C: 25.9%
[32]
  viability, T/C: 23.7%

## CC(Nc1ccc2c(c1)OCCn1cc(N3C(=O)OCC3C(F)F)nc1-2)C(N)=O (stereo not drawn) + CCn1c(-c2cccnc2C(C)OC)c2c3cc(ccc31)N1CCOC(CC(NC(=O)C(C(C)C)N(C)C(=O)C3(F)CCN(C(=O)C#CC(C)(C)N(C)C)CC3)C(=O)N3CCCC(N3)C(=O)OCC(C)(C)C2)C1
Second compound 0.000949 µM
  IC50: > 10000 nM
Second compound 0.003 µM
  IC50: 829 nM
Second compound 0.00949 µM
  IC50: < 31.6 nM
Second compound 0.03 µM
  IC50: < 31.6 nM
Second compound 0.0949 µM
  IC50: < 31.6 nM
Second compound 0.3 µM
  IC50: < 31.6 nM
[1]
  viability, T/C: 77.4%
[2]
  viability, T/C: 70.5%
[3]
  viability, T/C: 72.1%
[4]
  viability, T/C: 60.8%
[5]
  viability, T/C: 71.5%
[6]
  viability, T/C: 51.3%
[7]
  viability, T/C: 57.7%
[8]
  viability, T/C: 60.8%
[9]
  viability, T/C: 51.5%
[10]
  viability, T/C: 45.2%
[11]
  viability, T/C: 48.9%
[12]
  viability, T/C: 34.7%
[13]
  viability, T/C: 46.6%
[14]
  viability, T/C: 34.3%
[15]
  viability, T/C: 35.8%
[16]
  viability, T/C: 26.9%
[17]
  viability, T/C: 37.2%
[18]
  viability, T/C: 23%
[19]
  viability, T/C: 37.9%
[20]
  viability, T/C: 38.6%
[21]
  viability, T/C: 32.4%
[22]
  viability, T/C: 25%
[23]
  viability, T/C: 27.3%
[24]
  viability, T/C: 21.8%
[25]
  viability, T/C: 34.4%
[26]
  viability, T/C: 29.4%
[27]
  viability, T/C: 29.9%
[28]
  viability, T/C: 24.2%
[29]
  viability, T/C: 24%
[30]
  viability, T/C: 19.4%
[31]
  viability, T/C: 34.6%
[32]
  viability, T/C: 27%
[33]
  viability, T/C: 31.1%
[34]
  viability, T/C: 23.6%
[35]
  viability, T/C: 27.5%
[36]
  viability, T/C: 18.9%

## O=C(c1ccc(F)c(F)c1Nc1ccc(I)cc1F)N1CC(O)([C@@H]2CCCCN2)C1 + CCn1c(-c2cccnc2C(C)OC)c2c3cc(ccc31)N1CCOC(CC(NC(=O)C(C(C)C)N(C)C(=O)C3(F)CCN(C(=O)C#CC(C)(C)N(C)C)CC3)C(=O)N3CCCC(N3)C(=O)OCC(C)(C)C2)C1
Second compound 0.000949 µM
  IC50: 64.7 nM
Second compound 0.003 µM
  IC50: 9.15 nM
Second compound 0.00949 µM
  IC50: < 3.16 nM
Second compound 0.03 µM
  IC50: < 3.16 nM
Second compound 0.0949 µM
  IC50: < 3.16 nM
Second compound 0.3 µM
  IC50: < 3.16 nM
[37]
  viability, T/C: 76.5%
[38]
  viability, T/C: 53.9%
[1]
  viability, T/C: 63.3%
[2]
  viability, T/C: 42.2%
[3]
  viability, T/C: 6.87%
[4]
  viability, T/C: 2.59%
[39]
  viability, T/C: 57.1%
[40]
  viability, T/C: 44.8%
[7]
  viability, T/C: 40.7%
[8]
  viability, T/C: 18%
[9]
  viability, T/C: 6.5%
[10]
  viability, T/C: 2.42%
[41]
  viability, T/C: 41.7%
[42]
  viability, T/C: 32%
[13]
  viability, T/C: 22%
[14]
  viability, T/C: 14.2%
[15]
  viability, T/C: 5.98%
[16]
  viability, T/C: 2.66%
[43]
  viability, T/C: 27.4%
[44]
  viability, T/C: 33.5%
[19]
  viability, T/C: 25.5%
[20]
  viability, T/C: 11%
[21]
  viability, T/C: 6.18%
[22]
  viability, T/C: 2.44%
[45]
  viability, T/C: 28.3%
[46]
  viability, T/C: 24.3%
[25]
  viability, T/C: 19.7%
[26]
  viability, T/C: 10.6%
[27]
  viability, T/C: 5.39%
[28]
  viability, T/C: 2.34%
[47]
  viability, T/C: 28.5%
[48]
  viability, T/C: 26.5%
[31]
  viability, T/C: 21.9%
[32]
  viability, T/C: 10.1%
[33]
  viability, T/C: 4.51%
[34]
  viability, T/C: 2.36%
